Experiments:
Assay type in all cases: cell-based, human
p97^R155H/+ MNs [1] = experiment: Western blot of dysregulated protein levels after p97 inhibitor treatment; details: 400 nM for 6 days, 20 dpm (FIG. 5C)
Method: The maturation of MNs was followed using a 14 day protocol from BrainXell. Briefly, the MNs were thawed and plated on poly-lysine (Sigma, cat #P7886) coated plates in MN maturation medium containing DMEM/F12 (Gibco, cat #11330-032) and neurobasal medium (1:1 v/v), 2% 50× B27, 1% 100× N2, 0.25% 100× Glutamax, 10 ng/mL BDNF (Peprotech, cat #450-02), 10 ng/mL GDNF(Peprotech, cat #450-10), 1 ng/mL TGF-β1 (Peprotech, cat #100-21c), and 1× Brainfast supplement (BrainXell). The medium was changed with the same medium containing 15 μg/mL geltrex on day 1. An equal volume of maturation medium (excluding Geltrex) was added on day 4. Half of the medium (excluding the Brainfast supplement and Geltrex) was changed twice weekly from day 7. The MNs can be maintained for at least three weeks. […] NMS-873, cat #406458), or same volume of DMSO at D14, and then incubated for 6 days. The cells were harvested on D20. MN cells were scraped off plates, washed with DPBS, and centrifuged at 300 g for 4 min to remove supernatant. Pellets were frozen at −80° C. Pellets were resuspended with 100 lysis buffer (50 mM Tris-HCl pH 8.0, 150 mM NaCl, 1% Triton X-100 with protease inhibitor tablet, 50 μM MG132, and 50 mM NEM), and incubated on ice for 10 min with occasional vortexing. After that, samples were centrifuged at 15000 rpm at 4° C. for 10 min and transferred 90 μL cell lysate into a 1.5 mL tube. Total soluble protein concentrations were measured using the Bradford test (Bio-Rad, cat #5000006). 30 μL 4×Laemmli sample buffer (Bio-Rad, cat #161-0774) was added and samples were boiled for 5 min. An equal amount of protein was loaded and separated using 4-20% Mini-PROTEAN TGX precast gels (Bio-Rad, cat #456-1096) and transferred to nitrocellulose membranes using Trans-Blot Turbo Transfer System (Bio-Rad, cat #170-4155). Membranes were blocked with 1×TBST with 5% w/v nonfat milk, incubated with primary antibodies for 2 h at room temperature or overnight at 4° C., and incubated with HRP-conjugated secondary antibodies (Bio-Rad, 1:3000 dilution) for 2 h at room temperature. […] The blot densities were analyzed using Image Lab 6.0.1 software (Bio-Rad).

p97^R155H/+ MNs [2] = experiment: MN cell survival assay (Calcein AM live cell staining); details: 400 nM, treated at 14 dpm for 6 days, read at 20 dpm, vs DMSO (FIG. 5A)
Method: The maturation of MNs was followed using a 14 day protocol from BrainXell. Briefly, the MNs were thawed and plated on poly-lysine (Sigma, cat #P7886) coated plates in MN maturation medium containing DMEM/F12 (Gibco, cat #11330-032) and neurobasal medium (1:1 v/v), 2% 50× B27, 1% 100× N2, 0.25% 100× Glutamax, 10 ng/mL BDNF (Peprotech, cat #450-02), 10 ng/mL GDNF(Peprotech, cat #450-10), 1 ng/mL TGF-β1 (Peprotech, cat #100-21c), and 1× Brainfast supplement (BrainXell). The medium was changed with the same medium containing 15 μg/mL geltrex on day 1. An equal volume of maturation medium (excluding Geltrex) was added on day 4. Half of the medium (excluding the Brainfast supplement and Geltrex) was changed twice weekly from day 7. The MNs can be maintained for at least three weeks. […] NMS-873, cat #406458), or same volume of DMSO at D14, and then incubated for 6 days. The cells were harvested on D20. […] Cell viability was monitored every 3 or 4 days by staining with Calcein AM Viability Dye (Thermo, cat #65-0853-81), acquiring and analyzing images with ImageXpress Micro Confocal High-Content Imaging System (Molecular Devices). […] Cell viability was monitored at day 1 and day 14. […]

p97^R155H/+ MNs [3] = experiment: Proteomic analysis (LC-MS/MS) of D20 MNs after p97 inhibitor treatment; details: for Tau and MCM6 (proteomics): 6 days of treatment, 400 nM; for number of the 440 downregulated proteins that were increased after treatment / number of the 920 upregulated proteins that were reduced after treatment: 6 days, count stated for treatment with CB-5083 or NMS-873 (FIG. 5E)
Method: The maturation of MNs was followed using a 14 day protocol from BrainXell. Briefly, the MNs were thawed and plated on poly-lysine (Sigma, cat #P7886) coated plates in MN maturation medium containing DMEM/F12 (Gibco, cat #11330-032) and neurobasal medium (1:1 v/v), 2% 50× B27, 1% 100× N2, 0.25% 100× Glutamax, 10 ng/mL BDNF (Peprotech, cat #450-02), 10 ng/mL GDNF(Peprotech, cat #450-10), 1 ng/mL TGF-β1 (Peprotech, cat #100-21c), and 1× Brainfast supplement (BrainXell). The medium was changed with the same medium containing 15 μg/mL geltrex on day 1. An equal volume of maturation medium (excluding Geltrex) was added on day 4. Half of the medium (excluding the Brainfast supplement and Geltrex) was changed twice weekly from day 7. The MNs can be maintained for at least three weeks. […] NMS-873, cat #406458), or same volume of DMSO at D14, and then incubated for 6 days. The cells were harvested on D20. After culture, MN cells were scraped off the plates, washed with DPBS, and centrifuged at 300 g for 4 min to remove supernatant. Pellets were frozen at -80° C. The mass spec samples were prepared by following instructions for the […] Sample Prep Kit (Thermo Scientific, cat #A4006). Samples were dried using a vacuum centrifuge and resuspended in 0.1% formic acid (Thermo, cat #85178) water solution. Peptide concentrations were measured using the Quantitative Fluorometric Peptide Assay kit (Thermo, cat #23290). LC-MS/MS experiments were performed by loading 0.5 μg sample onto an EASY-nLC 1000 (Thermo Scientific) connected to an Orbitrap Eclipse Tribrid mass spectrometer (Thermo Scientific). Peptides were separated on an Aurora UHPLC Column (25 cm×75 μm, 1.6 μm C18, AUR2-25075C18A, Ion Opticks) with a flow rate of 0.4 μL/min and a total duration time of 131 min following the gradient composed of 3% Solvent B for 1 min, 3-19% B for 72 min, 19-29% B for 28 min, 29-41% B for 20 min, 41-95% B for 3 min, and 95-98% B for 7 min. Solvent A consists of 97.8% H2O, 2% ACN, and 0.2% formic acid; solvent B consists of 19.8% H2O, 80% ACN, and 0.2% formic acid. MS1 scans were acquired with a range of 400-1600 m/z in the Orbitrap at 120 k resolution. The maximum injection time was 50 ms, and the AGC target was 2×105. The filter dynamic exclusion was set to exclude after 1 time, 30 s duration, and 10 ppm mass tolerance. MS2 scans were acquired with quadrupole isolation mode and higher-energy collisional dissociation (HCD) activation type in the Iontrap. The isolation window was 1.4 m/z, collision energy was 35%, maximum injection time was 35 ms, and the AGC target was 1×104. Other global settings were as below: ion source type, NSI; spray voltage, positive ion 2400 V, negative ion 600 V; ion transfer tube temperature, 300° C. Method modifications and data collection were performed using Xcalibur software (Thermo Scientific). Proteomic analysis was performed using Proteome Discoverer 2.4 (Thermo Scientific) software with the Uniprot human database and the SequestHT with Percolator validation. Protein abundance normalization was performed on total peptide. The data exported from PD2.4 were then used for further analysis. Limma analysis was performed using R studio following the user guide (Gordon, 2020). The volcano figures were plotted using Origin 2019b. PCA analyses were generated with PD2.4 and plotted using Prism 7. The Venn diagram was performed using FunRich 3.1. The heatmap figure was performed with prism 7. Functional enrichment analyses were performed with g:Profiler (Raudvere, 2019). The bubble plot was generated using Origin 2019b.

iso p97^R155H/+ MNs = experiment: MN cell survival assay (live cell staining), isogenic mutant line; details: 100 nM for 6 days, vs DMSO (FIG. 5B)
Method: To compare p97 WT and […]/+ cells, MNs were thawed and plated on poly-lysine coated 96-well plates (Greiner, cat #655090) at a density of 1000 cells per 100 μL per well in MN maturation medium as described in the “motor neuron differentiation and maturation” section. Medium was changed with 100 μL of the same medium containing 15 μg/mL geltrex on day 1. 100 μL additional medium (excluding Geltrex) was added on day 4. Half of the medium (excluding the Brainfast supplement and Geltrex) was changed on day 7 and 11. 200 nM Ara-C was added to inhibit non-MN cells from proliferating. On day 14, the medium was replaced with N2 medium (DMEM/F12 and neurobasal medium, 1:1 v/v, 1% 100× N2). N2 medium was changed every six days. Cell viability was monitored every 3 or 4 days by staining with Calcein AM Viability Dye (Thermo, cat #65-0853-81), acquiring and analyzing images with ImageXpress Micro Confocal High-Content Imaging System (Molecular Devices). For p97 inhibitor treatment, MNs were plated on poly-lysine coated 384-well plates (Greiner, cat #781946) at a density of 500 cells per 30 μL per well. The same medium was used for plating and maintaining cells. Cell viability was monitored at day 1 and day 14. […]

Row | Structure (SMILES) | LC3 level (western blot) (p97^R155H/+ MNs [1]) | protein levels of ISL1, NES, Tau, pTau, MCM6, p53, y-H2Ax (western blot) (p97^R155H/+ MNs [1]) | loss of MNs (neuron loss, live cell staining) (p97^R155H/+ MNs [2]) | Tau and MCM6 (proteomics) (p97^R155H/+ MNs [3]) | number of the 440 downregulated proteins that were increased after treatment (p97^R155H/+ MNs [3]) | number of the 920 upregulated proteins that were reduced after treatment (p97^R155H/+ MNs [3]) | loss of MNs (neuron loss, live cell staining) (iso p97^R155H/+ MNs)
1 | Cc1cc2c(C(N)=O)cccc2n1-c1nc2c(c(NCc3ccccc3)n1)COCC2 [CB-5083] | slightly elevated | reversed increases | significantly reduced the loss of MNs | reduced | 192 | 428 | significantly reduced the loss of MNs
2 | Cc1cc(OCc2nnc(SC3CCCC3)n2-c2cccnc2)ccc1-c1ccc(S(C)(=O)=O)cc1 [NMS-873, 3-[3-cyclopentylsulfanyl-5-[[3-methyl-4-(4-methylsulfonylphenyl)phenoxy]methyl]-1,2,4-triazol-4-yl]pyridine] | slightly elevated | reversed increases | significantly reduced the loss of MNs | reduced | 192 | 428 | significantly reduced the loss of MNs
